Data: patent US10941157B2, “Pesticidal compositions and uses thereof” (Gilead Apollo, LLC, priority 2015, dated 2021)
In brackets after ≈: the same amount, converted by molar mass.

Tests used:
[1] = system: Botrtyis cinerea (Bc); experiment: In vitro pathogen growth inhibition assay, Bc; format: cell-based; conditions: 48 h, ≥90% growth inhibition; 48 hours; vs 2% DMSO control; read-out: Compound Concentration (ppm) sufficient for ≥90% inhibition of Bc
Procedure, shortened: (§1)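 Value reported is the compound concentration reaching ≥90% growth inhibition, from OD readings at 24 and 48 h after blank subtraction, confirmed visually. Inoculum was spores diluted in 17% V8 medium, except Rs, using 1.5 mm mycelial plugs in ¼ PDB; actual compound concentration corrected via OD600.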

[2] = system: Collectotrichum graminicola (Cg); experiment: In vitro pathogen growth inhibition assay, Cg; format: cell-based; conditions: 48 h, ≥90% growth inhibition; 48 hours; vs 2% DMSO control; read-out: Compound Concentration (ppm) sufficient for ≥90% inhibition of Cg
Procedure, shortened: as §1

[3] = system: Diplodia maydis (Dm); experiment: In vitro pathogen growth inhibition assay, Dm; format: cell-based; conditions: Stenocarpella maydis, 48 h, ≥90% growth inhibition; 48 hours; vs 2% DMSO control; read-out: Compound Concentration (ppm) sufficient for ≥90% inhibition of Dm
Procedure, shortened: (§2)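 Spores in 17% V8 liquid medium, or 1.5 mm Rs mycelial plugs in ¼ PDB, incubated with compound; final concentration checked by OD600 for precipitation. OD readings at 24 and 48 h, blank-subtracted, plus visual ratings; value is concentration giving ≥90% growth inhibition.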

[4] = system: Fusarium moniliforme (Fm); experiment: In vitro pathogen growth inhibition assay, Fm; format: cell-based; conditions: Fusarium verticillioides; ≥90% growth inhibition; 48 hours; vs 2% DMSO control; read-out: Compound Concentration (ppm) sufficient for ≥90% inhibition of Fm
Procedure, shortened: as §1

[5] = system: Fusarium virguliforme (Fv); experiment: In vitro pathogen growth inhibition assay, Fv; format: cell-based; conditions: ≥90% growth inhibition, 48 hours, vs 2% DMSO control, read-out: Compound Concentration (ppm) sufficient for ≥90% inhibition of Fv
Procedure, shortened: as §2

[6] = system: Phytophthora capsici (Pc); experiment: In vitro pathogen growth inhibition assay, Pc; format: cell-based; conditions: 48 h, ≥90% growth inhibition, 48 hours, vs 2% DMSO control, read-out: Compound Concentration (ppm) sufficient for ≥90% inhibition of Pc
Procedure, shortened: as §2

[7] = system: Rhizoctonia solani (Rs); experiment: In vitro pathogen growth inhibition assay, Rs (mycelial plugs); format: cell-based; conditions: Rhizoctonia solani, 48 h, ≥90% growth inhibition; mycelial plugs; 48 hours; vs 2% DMSO control; read-out: Compound Concentration (ppm) sufficient for ≥90% inhibition of Rs
Procedure, shortened: as §2

[8] = system: Septoria tritici (St); experiment: In vitro pathogen growth inhibition assay, St; format: cell-based; conditions: Zymoseptoria tritici, 48 h, ≥90% growth inhibition; 48 hours; vs 2% DMSO control; read-out: Compound Concentration (ppm) sufficient for ≥90% inhibition of St
Procedure, shortened: as §1

[9] = system: Blumeria graminis f. sp. hordei; experiment: Foliar protection test for barley powdery mildew control; format: in vivo; conditions: foliar spray on Hordeum vulgare cv. Perry, inoculated 24 hours after treatment, evaluated 7 days later
Procedure, shortened: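 Protective foliar test: compound atomized onto both leaf surfaces of 6-day-old Hordeum vulgare cv. Perry, followed after 24 h by spore-cloud inoculation from colonized untreated plants. Disease rated on leaves 7 days on, plants held at 20 to 22° C and 70% RH.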

[10] = system: Sphaerotheca fuliginea; experiment: Foliar protection for cucumber powdery mildew control; format: in vivo; conditions: foliar spray on Cucumis sativus cv. Straight Eight, inoculated 24 hours after treatment, evaluated 7 days later
Procedure, shortened: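 Protective foliar spray on 10-day-old Straight Eight cucumbers, with S. fuliginea spores dusted from infected stock plants 24 h after treatment. Disease developed at 23–27 °C, 60% RH and a 16 h photoperiod. Leaves were rated for mildew growth after 7 days; test rates 10 ppm or below.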

[11] = system: Mycosphaerella graminicola (synthetic Septoria tritici); experiment: Foliar protection test for wheat septoria leaf blotch control; format: in vivo; conditions: foliar spray on Triticum aestivum cv. WinterHawk, inoculated 1 hour after treatment, evaluated 16 days later
[12] = system: Fusarium graminearum; format: in vivo; conditions: spray on flowering Triticum aestivum cv. Samson, inoculated 24 hours after treatment, evaluated 14 days later
[13] = system: Puccinia triticina; experiment: Foliar protection test for wheat leaf rust control; format: in vivo; conditions: foliar application to wheat (Triticum aestivum cv. Winterhawk), evaluated 10 days later
[14] = system: Phakopsora pachyrhizi; experiment: Foliar protection test for Asian soybean rust control; format: in vivo; conditions: foliar application to soybean (Glycine max AG4832), percent disease area evaluated 14 days later

| SMILES | IC90 [1] [µg/mL] | IC90 [2] [µg/mL] | IC90 [3] [µg/mL] | IC90 [4] [µg/mL] | IC90 [5] [µg/mL] | IC90 [6] [µg/mL] | IC90 [7] [µg/mL] | IC90 [8] [µg/mL] | Barley Powdery Mildew Control at a compound concentration of 10 ppm or lower [9] | Cucumber Powdery Mildew Control at a compound concentration of 10 ppm or lower [10] | Septoria Leaf Blotch Control at a compound concentration of 25 ppm or lower [11] | Wheat Fusarium Head Blight Control at a compound concentration of 25 ppm or lower [12] | Wheat Leaf Rust Control at a compound concentration of 10 ppm or lower [13] | Asian Soybean Rust Control at a compound concentration of 25 ppm or lower [14] |
| --- | --- | --- | --- | --- | --- | --- | --- | --- | --- | --- | --- | --- | --- | --- |
| COc1ccc(F)cc1[C@H](Cn1c(=O)n([C@H](C)C(=O)N2CCCC2)c(=O)c2c(C)c(-n3nccn3)sc21)OCCC#N [Compound I-202, 3-((R)-1-(5-fluoro-2-methoxyphenyl)-2-(5-methyl-2,4-dioxo-3-((R)-1-oxo-1-(pyrrolidin-1-yl)propan-2-yl)-6-(2H-1,2,3-triazol-2-yl)-3,4-dihydrothieno[2,3-d]pyrimidin-1(2H)-yl)ethoxy)propanenitrile] | ≥ 0.4 | 2 (≈ 3.36 µM) | 2 (≈ 3.36 µM) | 0.08 (≈ 0.134 µM) | 0.4 (≈ 0.672 µM) | ≥ 50 | 0.4 (≈ 0.672 µM) | > 50 | A (from 70% to 84% control of barley powdery mildew) | AA (≥85% control of cucumber powdery mildew) | D (<25% control of wheat septoria leaf blotch) | D (<25% control of wheat fusarium head blight) | A (from 70% to 84% control of wheat leaf rust) | A (from 70% to 84% control of Asian soybean rust) |
| CCNC(=O)C(C)(C)n1c(=O)c2c(C)c(-n3nccn3)sc2n(C[C@H](OCCC#N)c2ccccc2OC)c1=O [Compound I-208, (R)-2-(1-(2-(2-cyanoethoxy)-2-(2-methoxyphenyl)ethyl)-5-methyl-2,4-dioxo-6-(2H-1,2,3-triazol-2-yl)-1,4-dihydrothieno[2,3-d]pyrimidin-3 (2H)-yl)-N-ethyl-2-methylpropanamide] | 0.4 (≈ 0.707 µM) | 2 (≈ 3.54 µM) | 2 (≈ 3.54 µM) | 0.4 (≈ 0.707 µM) | 0.4 (≈ 0.707 µM) | > 50 | 0.08 (≈ 0.141 µM) | > 50 | AA (≥85% control of barley powdery mildew) | AA (≥85% control of cucumber powdery mildew) | AA (≥85% control of wheat septoria leaf blotch) | C (from 25 to 49% control of wheat fusarium head blight) | AA (≥85% control of wheat leaf rust) | AA (≥85% control of Asian soybean rust) |
| COc1ccc(F)cc1[C@H](Cn1c(=O)n(C(C)(C)C(=O)NC(C)C)c(=O)c2c(C)c(-n3nccn3)sc21)OCC#N [Compound I-210, (R)-2-(1-(2-(cyanomethoxy)-2-(5-fluoro-2-methoxyphenyl)ethyl)-5-methyl-2,4-dioxo-6-(2H-1,2,3-triazol-2-yl)-1,4-dihydrothieno[2,3-d]pyrimidin-3 (2H)-yl)-N-isopropyl-2-methylpropanamide] | 0.4 (≈ 0.685 µM) | ≥ 0.4 | 0.4 (≈ 0.685 µM) | 2 (≈ 3.43 µM) | 0.4 (≈ 0.685 µM) | > 50 | 0.08 (≈ 0.137 µM) | > 50 | AA (≥85% control of barley powdery mildew) | AA (≥85% control of cucumber powdery mildew) | AA (≥85% control of wheat septoria leaf blotch) | C (from 25 to 49% control of wheat fusarium head blight) | A (from 70% to 84% control of wheat leaf rust) | AA (≥85% control of Asian soybean rust) |
